Assay results from PubChem BioAssay AID1259407 (Chemical Carcinogenesis Research Information System (CCRIS), 2018).
Calls of active or inactive are those of the source. No rule for the calls is given here.

Tested on: CCRIS mutagenicity, Ames/micronucleus/aberration tests
Test: CCRIS mutagenicity studies
[1] = Test System: AMES SALMONELLA TYPHIMURIUM, Strain/Indicator: TA97, Metabolic Activation: HAMSTER, LIVER, S-9, AROCLOR 1254 (10%), Method: PREINCUBATION
[2] = Test System: AMES SALMONELLA TYPHIMURIUM, Strain/Indicator: TA97, Metabolic Activation: NONE, Method: PREINCUBATION
[3] = Test System: AMES SALMONELLA TYPHIMURIUM, Strain/Indicator: TA98, Metabolic Activation: HAMSTER, LIVER, S-9, AROCLOR 1254 (10%), Method: PREINCUBATION
[4] = Test System: AMES SALMONELLA TYPHIMURIUM, Strain/Indicator: TA98, Metabolic Activation: NONE, Method: PREINCUBATION
[5] = Test System: AMES SALMONELLA TYPHIMURIUM, Strain/Indicator: TA98, Metabolic Activation: RAT, LIVER, S-9, AROCLOR 1254 (10%), Method: PREINCUBATION
[6] = Test System: AMES SALMONELLA TYPHIMURIUM, Strain/Indicator: TA100, Metabolic Activation: HAMSTER, LIVER, S-9, AROCLOR 1254 (10%), Method: PREINCUBATION
[7] = Test System: AMES SALMONELLA TYPHIMURIUM, Strain/Indicator: TA100, Metabolic Activation: NONE, Method: PREINCUBATION
[8] = Test System: AMES SALMONELLA TYPHIMURIUM, Strain/Indicator: TA100, Metabolic Activation: NONE, Method: STANDARD PLATE
[9] = Test System: AMES SALMONELLA TYPHIMURIUM, Strain/Indicator: TA1535, Metabolic Activation: HAMSTER, LIVER, S-9, AROCLOR 1254 (10%), Method: PREINCUBATION
[10] = Test System: AMES SALMONELLA TYPHIMURIUM, Strain/Indicator: TA1535, Metabolic Activation: NONE, Method: PREINCUBATION
[11] = Test System: AMES SALMONELLA TYPHIMURIUM, Strain/Indicator: TA1535, Metabolic Activation: RAT, LIVER, S-9, AROCLOR 1254 (10%), Method: PREINCUBATION
[12] = Test System: AMES SALMONELLA TYPHIMURIUM, Strain/Indicator: TA1537, Metabolic Activation: HAMSTER, LIVER, S-9, AROCLOR 1254 (10%), Method: PREINCUBATION
[13] = Test System: AMES SALMONELLA TYPHIMURIUM, Strain/Indicator: TA1537, Metabolic Activation: NONE, Method: PREINCUBATION
[14] = Test System: AMES SALMONELLA TYPHIMURIUM, Strain/Indicator: TA1537, Metabolic Activation: RAT, LIVER, S-9, AROCLOR 1254 (10%), Method: PREINCUBATION

In the case of `C=CC(=O)OC`, the mutagenic call [1] is reported as “inactive; negative”, the mutagenic call (Test System: AMES SALMONELLA TYPHIMURIUM, Strain/Indicator: TA97, Metabolic Activation: HAMSTER, LIVER, S-9, AROCLOR 1254 (30%), Method: PREINCUBATION) is reported as “inactive; negative” and the mutagenic call [2] is reported as “inactive; negative”. The mutagenic call (Test System: AMES SALMONELLA TYPHIMURIUM, Strain/Indicator: TA97, Metabolic Activation: RAT, LIVER, S-9, AROCLOR 1254 (10 OR 30%), Method: PREINCUBATION) was “inactive; negative”, the mutagenic call [3] was “inactive; negative” and the mutagenic call (Test System: AMES SALMONELLA TYPHIMURIUM, Strain/Indicator: TA98, Metabolic Activation: HAMSTER, LIVER, S-9, AROCLOR 1254 (30%), Method: PREINCUBATION) was “inactive; negative”. The mutagenic call [4] was “inactive; negative”, the mutagenic call (Test System: AMES SALMONELLA TYPHIMURIUM, Strain/Indicator: TA98, Metabolic Activation: NONE, Method: STANDARD PLATE) was “inactive; negative” and the mutagenic call [5] was “inactive; negative”. The mutagenic call (Test System: AMES SALMONELLA TYPHIMURIUM, Strain/Indicator: TA98, Metabolic Activation: RAT, LIVER, S-9, AROCLOR 1254 (30%), Method: PREINCUBATION) was “inactive; negative”, the mutagenic call (Test System: AMES SALMONELLA TYPHIMURIUM, Strain/Indicator: TA98, Metabolic Activation: RAT, LIVER, S-9, AROCLOR 1254, Method: STANDARD PLATE) was “inactive; negative” and the mutagenic call (Test System: AMES SALMONELLA TYPHIMURIUM, Strain/Indicator: TA98, Metabolic Activation: RAT, LIVER, S-9, SODIUM PHENOBARBITAL, Method: STANDARD PLATE) was “inactive; negative”. The mutagenic call [6] was “inactive; negative”, the mutagenic call (Test System: AMES SALMONELLA TYPHIMURIUM, Strain/Indicator: TA100, Metabolic Activation: HAMSTER, LIVER, S-9, AROCLOR 1254 (30%), Method: PREINCUBATION) was “inactive; negative” and the mutagenic call [7] was “inactive; negative”. For the same molecule, the mutagenic call [8] was “inactive; negative”, the mutagenic call (Test System: AMES SALMONELLA TYPHIMURIUM, Strain/Indicator: TA100, Metabolic Activation: RAT, LIVER, S-9, AROCLOR 1254 (10 OR 30%), Method: PREINCUBATION) was “inactive; negative” and the mutagenic call (Test System: AMES SALMONELLA TYPHIMURIUM, Strain/Indicator: TA100, Metabolic Activation: RAT, LIVER, S-9, AROCLOR 1254, Method: PREINCUBATION) was “inactive; negative”. For the same molecule, the mutagenic call (Test System: AMES SALMONELLA TYPHIMURIUM, Strain/Indicator: TA100, Metabolic Activation: RAT, LIVER, S-9, AROCLOR 1254, Method: STANDARD PLATE) was “inactive; negative”, the mutagenic call (Test System: AMES SALMONELLA TYPHIMURIUM, Strain/Indicator: TA100, Metabolic Activation: RAT, LIVER, S-9, SODIUM PHENOBARBITAL, Method: STANDARD PLATE) was “inactive; negative” and the mutagenic call [9] was “inactive; negative”. For the same molecule, the mutagenic call (Test System: AMES SALMONELLA TYPHIMURIUM, Strain/Indicator: TA1535, Metabolic Activation: HAMSTER, LIVER, S-9, AROCLOR 1254 (30%), Method: PREINCUBATION) was “inactive; negative”, the mutagenic call [10] was “inactive; negative” and the mutagenic call (Test System: AMES SALMONELLA TYPHIMURIUM, Strain/Indicator: TA1535, Metabolic Activation: NONE, Method: STANDARD PLATE) was “inactive; negative”. For the same molecule, the mutagenic call [11] was “inactive; negative”, the mutagenic call (Test System: AMES SALMONELLA TYPHIMURIUM, Strain/Indicator: TA1535, Metabolic Activation: RAT, LIVER, S-9, AROCLOR 1254 (30%), Method: PREINCUBATION) was “inactive; negative” and the mutagenic call (Test System: AMES SALMONELLA TYPHIMURIUM, Strain/Indicator: TA1535, Metabolic Activation: RAT, LIVER, S-9, AROCLOR 1254, Method: STANDARD PLATE) was “inactive; negative”. For the same molecule, the mutagenic call (Test System: AMES SALMONELLA TYPHIMURIUM, Strain/Indicator: TA1535, Metabolic Activation: RAT, LIVER, S-9, SODIUM PHENOBARBITAL, Method: STANDARD PLATE) was “inactive; negative”, the mutagenic call [12] was “inactive; negative” and the mutagenic call [13] was “inactive; negative”. The mutagenic call (Test System: AMES SALMONELLA TYPHIMURIUM, Strain/Indicator: TA1537, Metabolic Activation: NONE, Method: STANDARD PLATE) was “inactive; negative”, the mutagenic call [14] was “inactive; negative” and the mutagenic call (Test System: AMES SALMONELLA TYPHIMURIUM, Strain/Indicator: TA1537, Metabolic Activation: RAT, LIVER, S-9, AROCLOR 1254, Method: STANDARD PLATE) was “inactive; negative”. For the same molecule, the mutagenic call (Test System: AMES SALMONELLA TYPHIMURIUM, Strain/Indicator: TA1537, Metabolic Activation: RAT, LIVER, S-9, SODIUM PHENOBARBITAL, Method: STANDARD PLATE) was “inactive; negative”, the mutagenic call (Test System: AMES SALMONELLA TYPHIMURIUM, Strain/Indicator: TA1538, Metabolic Activation: NONE, Method: STANDARD PLATE) was “inactive; negative” and the mutagenic call (Test System: AMES SALMONELLA TYPHIMURIUM, Strain/Indicator: TA1538, Metabolic Activation: RAT, LIVER, S-9, AROCLOR 1254, Method: STANDARD PLATE) was “inactive; negative”. For the same molecule, the mutagenic call (Test System: AMES SALMONELLA TYPHIMURIUM, Strain/Indicator: TA1538, Metabolic Activation: RAT, LIVER, S-9, SODIUM PHENOBARBITAL, Method: STANDARD PLATE) was “inactive; negative”, the mutagenic call (Test System: CHINESE HAMSTER OVARY, Strain/Indicator: CHO-K1-BH4 (HGPRT)/6-THIOGUANINE, Metabolic Activation: NONE, Method: SUSPENSION/PLATE) was “active; positive” and the mutagenic call (Test System: CHINESE HAMSTER OVARY, Strain/Indicator: CHO-K1-BH4 (HGPRT), Metabolic Activation: NONE, Method: SUSPENSION/PLATE) was “active; positive”. The mutagenic call (Test System: MOUSE LYMPHOMA, Strain/Indicator: L5178Y (TK+/TK-), Metabolic Activation: RAT, LIVER, S-9, AROCLOR 1254, Method: SUSPENSION/PLATE) was “active; positive. reevaluation of results: positive”.

With `O=[N+]([O-])c1ccc(-c2cscn2)o1` the mutagenic call (Test System: AMES SALMONELLA TYPHIMURIUM, Strain/Indicator: TA100, Metabolic Activation: RAT, LIVER, S-9, KC500 OR PHENOBARBITAL, Method: LIQUID SUSPENSION) was “active; positive”.

`O[C@H]1C=Cc2cccnc2[C@@H]1O` was tested, and the mutagenic call [8] was “inactive; negative” and the mutagenic call (Test System: AMES SALMONELLA TYPHIMURIUM, Strain/Indicator: TA100, Metabolic Activation: RAT, LIVER, S-9, AROCLOR 1254 (10 OR 20%), Method: STANDARD PLATE) was “inactive; negative”.

With `COc1ccc(C(=O)Nc2ccccc2)cc1[N+](=O)[O-]` the mutagenic call [1] was “active; positive”, the mutagenic call [2] was “inactive; negative” and the mutagenic call (Test System: AMES SALMONELLA TYPHIMURIUM, Strain/Indicator: TA97, Metabolic Activation: RAT, LIVER, S-9, AROCLOR 1254 (10%), Method: PREINCUBATION) was “active; positive”. The mutagenic call [3] was “active; positive”, the mutagenic call [4] was “inactive; negative” and the mutagenic call [5] was “active; positive”. For the same molecule, the mutagenic call [6] was “active; positive”, the mutagenic call [7] was “active; positive” and the mutagenic call (Test System: AMES SALMONELLA TYPHIMURIUM, Strain/Indicator: TA100, Metabolic Activation: RAT, LIVER, S-9, AROCLOR 1254 (10%), Method: PREINCUBATION) was “active; positive”. For the same molecule, the mutagenic call [9] was “inactive; negative”, the mutagenic call [10] was “inactive; negative” and the mutagenic call [11] was “inactive; negative”. For the same molecule, the mutagenic call [12] was “active; positive”, the mutagenic call [13] was “inactive; negative” and the mutagenic call [14] was “active; positive”.

In the case of `C=C(C)C1CC=C(CO)CC1` (stereo not given), the mutagenic call (Test System: Mouse lymphoma, Strain/Indicator: L5178Y (tk+/tk-), Metabolic Activation: None, Method: Suspension/plate) is reported as “inactive; negative” and the mutagenic call (Test System: Mouse lymphoma, Strain/Indicator: L5178Y (tk+/tk-), Metabolic Activation: Rat, Liver, S-9, Aroclor 1254, Method: Suspension/plate) is reported as “inactive; positive. retest at same dose: negative”.
